Measurements reported in US9113629B2, “4-amino-6-(4-substituted-phenyl)-picolinates and 6-amino-2-(4-substituted-phenyl)-pyrimidine-4-carboxylates and their use as herbicides” (DOW AGROSCIENCES LLC, priority 2013, dated 2015).
Like-named read-outs stand apart in the source and are kept apart here.

Legend:
[1] = tested on: Key Grass and Sedge Weeds as well as Grass Crops; assay: Post-emergent Test II herbicidal activity (Table 6); assay type: in vivo; details: post-emergence, 336 h; for pest or weed control at 70 g/ha: 70 g ai/ha; for pest or weed control at 140 g/ha: 140 g ai/ha
Procedure, shortened: (§1)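 Scoring: visual, 0–100% injury at 14 d versus untreated. Treatment: overhead track spray, 187 L/ha, onto plants at the first–second true leaf stage. Growth: greenhouse, ~15 h light, 23–29 °C day, 22–28 °C night.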

[2] = tested on: Key Broadleaf Weed and Crop Species; assay: Post-emergent Test II herbicidal activity (Table 5); assay type: in vivo; details: post-emergence, 336 h, 14 days after application; for pest or weed control at 70 g/ha: application rate 70 g ai/ha; for pest or weed control at 140 g/ha: application rate 140 g ai/ha
Procedure, shortened: as §1

[3] = CYPES: yellow nutsedge (Cyperus esculentus), read-out: Visual Growth Reduction (%) 14 Days After Application, CYPES
[4] = DIGSA: crabgrass (Digitaria sanguinalis), read-out: Visual Growth Reduction (%) 14 Days After Application, DIGSA
[5] = ECHCG: barnyardgrass (Echinochloa crus-galli), read-out: Visual Growth Reduction (%) 14 Days After Application, ECHCG
[6] = ORYSA: rice (Oryza sativa), crop, read-out: Visual Growth Reduction (%) 14 Days After Application, ORYSA
[7] = SETFA: giant foxtail (Setaria faberi), read-out: Visual Growth Reduction (%) 14 Days After Application, SETFA
[8] = SORVU: grain sorghum (Sorghum vulgare), read-out: Visual Growth Reduction (%) 14 Days After Application, SORVU
[9] = TRZSS (wheat, Triticum aestivum), crop, read-out: Visual Growth Reduction (%) 14 Days After Application, TRZSS
[10] = ZEAMX: maize, corn (Zea mays), crop, read-out: Visual Growth Reduction (%) 14 Days After Application, ZEAMX
[11] = ABUTH: velvetleaf (Abutilon theophrasti), read-out: Visual Growth Reduction (%) 14 Days After Application, ABUTH
[12] = AMARE: redroot pigweed (Amaranthus retroflexus), read-out: Visual Growth Reduction (%) 14 Days After Application, AMARE
[13] = BRSNN: oilseed-rape, canola (Brassica napus), read-out: Visual Growth Reduction (%) 14 Days After Application, BRSNN
[14] = CHEAL: lambsquarters (Chenopodium album), read-out: Visual Growth Reduction (%) 14 Days After Application, CHEAL
[15] = EPHHL: wild poinsettia (Euphorbia heterophylla), read-out: Visual Growth Reduction (%) 14 Days After Application, EPHHL
[16] = HELAN: sunflower (Helianthus annuus), read-out: Visual Growth Reduction (%) 14 Days After Application, HELAN
[17] = VIOTR: wild pansy (Viola tricolor), read-out: Visual Growth Reduction (%) 14 Days After Application, VIOTR

SMILES: Nc1c(F)c(-c2ccccc2)nc(C(=O)O)c1Cl [Compound 180]
- pest or weed control at 70 g/ha [1, 3]: 30 to 44%
- pest or weed control at 140 g/ha [1, 3]: 45 to 59%
- pest or weed control at 70 g/ha [1, 4]: 0 to 29%
- pest or weed control at 140 g/ha [1, 4]: 0 to 29%
- pest or weed control at 70 g/ha [1, 5]: 0 to 29%
- pest or weed control at 140 g/ha [1, 5]: 0 to 29%
- pest or weed control at 70 g/ha [1, 6]: 0 to 29%
- pest or weed control at 140 g/ha [1, 6]: 0 to 29%
- pest or weed control at 70 g/ha [1, 7]: 0 to 29%
- pest or weed control at 140 g/ha [1, 7]: 0 to 29%
- pest or weed control at 70 g/ha [1, 8]: 0 to 29%
- pest or weed control at 140 g/ha [1, 8]: 30 to 44%
- pest or weed control at 70 g/ha [1, 9]: 0 to 29%
- pest or weed control at 140 g/ha [1, 9]: 0 to 29%
- pest or weed control at 70 g/ha [1, 10]: 0 to 29%
- pest or weed control at 140 g/ha [1, 10]: 0 to 29%
- pest or weed control at 70 g/ha [2, 11]: 85 to 94%
- pest or weed control at 140 g/ha [2, 11]: 95 to 100%
- pest or weed control at 70 g/ha [2, 12]: 45 to 59%
- pest or weed control at 140 g/ha [2, 12]: 75 to 84%
- pest or weed control at 70 g/ha [2, 13]: 85 to 94%
- pest or weed control at 140 g/ha [2, 13]: 95 to 100%
- pest or weed control at 70 g/ha [2, 14]: 95 to 100%
- pest or weed control at 140 g/ha [2, 14]: 95 to 100%
- pest or weed control at 70 g/ha [2, 15]: 60 to 74%
- pest or weed control at 140 g/ha [2, 15]: 75 to 84%
- pest or weed control at 70 g/ha [2, 16]: 85 to 94%
- pest or weed control at 140 g/ha [2, 16]: 85 to 94%
- pest or weed control at 70 g/ha [2, 17]: 0 to 29%
- pest or weed control at 140 g/ha [2, 17]: 0 to 29%

SMILES: COC(=O)c1nc(-c2ccc(Br)c(F)c2)c(F)c(N)c1Cl [Compound 49]
- pest or weed control at 70 g/ha [1, 3]: 95 to 100%
- pest or weed control at 140 g/ha [1, 3]: 85 to 94%
- pest or weed control at 70 g/ha [1, 4]: 60 to 74%
- pest or weed control at 140 g/ha [1, 4]: 75 to 84%
- pest or weed control at 70 g/ha [1, 5]: 85 to 94%
- pest or weed control at 140 g/ha [1, 5]: 95 to 100%
- pest or weed control at 70 g/ha [1, 6]: 0 to 29%
- pest or weed control at 140 g/ha [1, 6]: 0 to 29%
- pest or weed control at 70 g/ha [1, 7]: 60 to 74%
- pest or weed control at 140 g/ha [1, 7]: 95 to 100%
- pest or weed control at 70 g/ha [1, 8]: 95 to 100%
- pest or weed control at 140 g/ha [1, 8]: 95 to 100%
- pest or weed control at 70 g/ha [1, 9]: 45 to 59%
- pest or weed control at 140 g/ha [1, 9]: 60 to 74%
- pest or weed control at 70 g/ha [1, 10]: 95 to 100%
- pest or weed control at 140 g/ha [1, 10]: 95 to 100%
- pest or weed control at 70 g/ha [2, 11]: 95 to 100%
- pest or weed control at 140 g/ha [2, 11]: 95 to 100%
- pest or weed control at 70 g/ha [2, 12]: 95 to 100%
- pest or weed control at 140 g/ha [2, 12]: 95 to 100%
- pest or weed control at 70 g/ha [2, 13]: 95 to 100%
- pest or weed control at 140 g/ha [2, 13]: 95 to 100%
- pest or weed control at 70 g/ha [2, 14]: 95 to 100%
- pest or weed control at 140 g/ha [2, 14]: 95 to 100%
- pest or weed control at 70 g/ha [2, 16]: 95 to 100%
- pest or weed control at 140 g/ha [2, 16]: 95 to 100%
- pest or weed control at 70 g/ha [2, 17]: 95 to 100%
- pest or weed control at 140 g/ha [2, 17]: 95 to 100%
